Data set [1] has as its system Cocaine Binding Aptamer (CBA). Description: Transformed response potentiometric titration of different ligands with CBA as titrant (cross-reactivity). The note with it: for Ka: Post-EP method, 10^−5 M ligand in 1 mM MES buffer pH 7, CBA as titrant.
The nature of data set [2]: Transformed response potentiometric titration of cocaine (ligand) with titrants. The note with it: for Ka: 1 mM MES buffer pH 7.0, mean of n electrodes. It counts as binding.

Turning to `CN(Cc1cc(Br)cc(Br)c1N)C1CCCCC1` [bromhexine], the Ka in data set [1] was 570000 M⁻¹.
The same measure, in the same setting: the value for `CCN(CC)CC(=O)Nc1c(C)cccc1C` [lidocaine] was 100000 M⁻¹.
Consider `CN1C[C@H](CNC(=O)OCc2ccccc2)C[C@@H]2c3cccc4c3c(cn4C)C[C@H]21` [metergoline], for which the Ka in data set [1] came out at 3.3e+06 M⁻¹. The “interaction with CBA (in words)” value in data set [1] (cross-reactivity compared with cocaine) is listed as “better interaction with metergoline than with cocaine”.
In the case of `Clc1ccc([B-](c2ccc(Cl)cc2)(c2ccc(Cl)cc2)c2ccc(Cl)cc2)cc1` [TCPB, tetrakis (4-chlorophenyl)borate], the Ka in data set [2] (Equivalence Point (EP) method) is 3e+09 M⁻¹; in data set [2] (Post-EP (PEP) method), 9e+09 M⁻¹.
In general, Kd refers to the free concentration of one partner at which half of the binding sites on the other are occupied at equilibrium, for simple one-to-one binding. Read a high Kd as weaker binding. For the molecule “CBA: Cocaine Binding Aptamer, sequence SEQ ID NO: 1, 43 bases (DNA ATCTCGGGACGACAGGATTTTCCTCAATGAAGTGGGTCGTCCC; DNA, backbone not given here)”, the Kd in data set [2] (Post-EP method, n=6 electrodes) turned out to be 1100 nM.
For the molecule “25-mer-DNA: randomly chosen non-specific oligonucleotide, likely SEQ ID NO: 2 (DNA AAAATATCATCTTTGGTGTTTCCTA; DNA, backbone and methylation of C not given here)”, the Ka in data set [2] (Post-EP (PEP) method) stood at 24000 M⁻¹. The “specific interaction with cocaine (in words)” value in data set [2] (comparison of titration curves and Ka values) is “little or no specific interaction”.

B1: CAPBA: Chloramphenicol Binding Aptamer, sequence SEQ ID NO: 3 (nucleic acid)
DNA: AGCAGCACAGAGGTCAGATGACTTCAGTGAGTTGTCCCACGGTCGGCGAGTCGGTGGTAGCCTATGCGTGCTACCGTGAA
modifications: DNA, backbone and methylation of C not given here
The molecule B1 returned a Ka in data set [2] (Post-EP (PEP) method) of 47000 M⁻¹.

Values taken from US11614423B2, “Transformed response potentiometric titrations” (UNIVERSITEIT ANTWERPEN, priority 2014, dated 2023).
